These results are taken from PubChem BioAssay (NCI).

Some test systems named below: 786-0 renal; A498 renal; EKVX NSCLC; HOP-62 NSCLC; HT29 colon; M14 melanoma; MOLT-4 leukemia; NCI-H460 lung; SF-268 CNS; SK-MEL-28 melanoma.
What all share (test): NCI tumour cell line growth inhibition, 48 h

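Interpolation was linear, between the two tested concentrations surrounding the appropriate level; five concentrations were tested over 48 hours in 96-well plates. GI50: concentration for 50% inhibition of growth. Definition used: TGI = concentration required for complete inhibition of growth.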

As for `COc1ccccc1NC(=O)C(CC(C(=O)Nc1ccccc1OC)/C(C)=N/Nc1ccc([N+](=O)[O-])cc1[N+](=O)[O-])/C(C)=N/Nc1ccc([N+](=O)[O-])cc1[N+](=O)[O-]` (stereo not drawn), the TGI with 786-0 renal, with A498 renal, in the experiment with EKVX NSCLC, in the experiment on HOP-62 NSCLC, in the experiment with HT29 colon and in the experiment with M14 melanoma was over 100 µM each time. Moreover, the TGI in the experiment on MOLT-4 leukemia, in the experiment on NCI-H460 lung, in the experiment with SF-268 CNS and in the experiment on SK-MEL-28 melanoma was over 100 µM throughout.
For the compound `COc1ccc(CCN2CCc3c(C)c(C#N)c4nc5ccccc5n4c32)cc1OC`, the TGI in the experiment on 786-0 renal, with A498 renal, in the experiment with HOP-62 NSCLC, in the experiment with HT29 colon, in the experiment on M14 melanoma and in the experiment with NCI-H460 lung was over 100 µM in each case. In addition, the TGI in the experiment with SF-268 CNS and in the experiment with SK-MEL-28 melanoma was over 100 µM in each case.
Consider `CCOC(=O)[C@H]1Nc2ccccc2C2c3ccccc3CC21` (stereo partly drawn), for which the TGI with 786-0 renal was over 100 µM; in the experiment on A498 renal, 61.8 µM; with HOP-62 NSCLC, over 100 µM; with HT29 colon, 37.2 µM; with M14 melanoma, over 100 µM; with MOLT-4 leukemia, over 100 µM. Also, the TGI with NCI-H460 lung, with SF-268 CNS and in the experiment with SK-MEL-28 melanoma was over 100 µM throughout.
On to `Cc1cc(Cl)ccc1Nc1nc(C(F)(F)F)ccc1C(=O)N1CCN(c2cccc(Cl)c2)CC1`, for which the GI50 was over 100 µM in the experiment with 786-0 renal; 37.1 µM with A498 renal; over 100 µM in the experiment on EKVX NSCLC; over 100 µM in the experiment with HOP-62 NSCLC; 46.1 µM in the experiment with HT29 colon; over 100 µM in the experiment on M14 melanoma. In addition, the GI50 in the experiment with MOLT-4 leukemia is 19.6 µM; in the experiment on NCI-H460 lung, over 100 µM; with SF-268 CNS it was over 100 µM; in the experiment on SK-MEL-28 melanoma it was over 100 µM. Further, the TGI in the experiment on 786-0 renal, with A498 renal, in the experiment with EKVX NSCLC, with HOP-62 NSCLC, in the experiment with HT29 colon and with M14 melanoma was over 100 µM throughout. Moreover, the TGI with MOLT-4 leukemia, with NCI-H460 lung, in the experiment with SF-268 CNS and in the experiment with SK-MEL-28 melanoma was over 100 µM in each case.
Consider `C#CCN(Cc1ccc2nc(N)[nH]c(=O)c2c1)c1ccc(C(=O)NC(CCC(=O)O)C(=O)O)cc1` (stereo not drawn), for which the TGI in the experiment on 786-0 renal, in the experiment on A498 renal, with EKVX NSCLC, in the experiment with HOP-62 NSCLC, in the experiment on HT29 colon and in the experiment on M14 melanoma was over 100 µM throughout. For the same compound, the TGI with MOLT-4 leukemia, with NCI-H460 lung, with SF-268 CNS and with SK-MEL-28 melanoma was over 100 µM in each case.
Turning to `O=c1[nH]c2ccccc2n1-c1n[nH]c2ccccc12`, the GI50 in the experiment on 786-0 renal was 46.6 µM; in the experiment with A498 renal, 51.3 µM; with EKVX NSCLC it was 29.7 µM; with HOP-62 NSCLC, 33.2 µM; in the experiment with HT29 colon, 37.6 µM; in the experiment on M14 melanoma it was 29.2 µM. Further, the GI50 is 17.3 µM with MOLT-4 leukemia, 19.4 µM in the experiment on NCI-H460 lung, 25.1 µM in the experiment with SF-268 CNS and 38.8 µM with SK-MEL-28 melanoma. Also, the TGI in the experiment on 786-0 renal was over 100 µM; in the experiment on A498 renal, over 100 µM; with EKVX NSCLC it was over 100 µM; in the experiment with HOP-62 NSCLC it was over 100 µM; in the experiment on HT29 colon, over 100 µM; with M14 melanoma, 88.2 µM. In addition, the TGI with MOLT-4 leukemia was 84.9 µM; in the experiment on NCI-H460 lung, 93.5 µM; in the experiment on SF-268 CNS it was over 100 µM; in the experiment on SK-MEL-28 melanoma, over 100 µM.
Take `COc1cc(NC(=O)Nc2cnc(Nc3ccc(N4CCOCC4)cc3)nc2Oc2cccc(OC)c2)cc(OC)c1`: the GI50 in the experiment with 786-0 renal is 0.928 µM; with A498 renal it was 1.3 µM; with EKVX NSCLC it was 2.17 µM; in the experiment with HOP-62 NSCLC, 1.76 µM; in the experiment on HT29 colon, 1.1 µM; in the experiment with M14 melanoma, 1.85 µM. Further, the GI50 in the experiment on MOLT-4 leukemia was 36.8 µM; in the experiment with NCI-H460 lung, 1.12 µM; in the experiment with SF-268 CNS, 2.07 µM; in the experiment with SK-MEL-28 melanoma it was 1.61 µM. The TGI was determined as 1.88 µM in the experiment on 786-0 renal; 2.97 µM in the experiment on A498 renal; 24.5 µM in the experiment with EKVX NSCLC; 6.9 µM in the experiment on HOP-62 NSCLC; 3.15 µM with HT29 colon; 9.2 µM with M14 melanoma. Besides, the TGI in the experiment with MOLT-4 leukemia is over 50 µM; in the experiment with NCI-H460 lung, 2.27 µM; with SF-268 CNS it was 12.3 µM; with SK-MEL-28 melanoma, 6.21 µM.
Take `COC1(OC)c2no[n+]([O-])c2C(OC)(OC)c2c1no[n+]2[O-]`: the TGI worked out at 48.9 µM in the experiment with 786-0 renal; 34.6 µM in the experiment with A498 renal; 41.6 µM in the experiment with EKVX NSCLC; 35.8 µM in the experiment with HOP-62 NSCLC; 37.7 µM in the experiment with HT29 colon; 26.9 µM with M14 melanoma. For the same compound, the TGI in the experiment on MOLT-4 leukemia is over 100 µM; in the experiment on NCI-H460 lung it was over 100 µM; with SF-268 CNS it was 73.3 µM; with SK-MEL-28 melanoma, 32.1 µM.
As to `Cc1c(C(=O)CSc2nc3ccccc3[nH]2)c(=O)n(-c2ccccc2)n1C`, the TGI in the experiment on 786-0 renal, in the experiment with A498 renal, in the experiment on HOP-62 NSCLC, in the experiment with HT29 colon, with M14 melanoma and in the experiment on MOLT-4 leukemia was over 100 µM in each case. Also, the TGI in the experiment on NCI-H460 lung, in the experiment on SF-268 CNS and with SK-MEL-28 melanoma was over 100 µM each time.
With `CCCCCCCCCCCCCc1nn[nH]n1`, the TGI is 31.5 µM with 786-0 renal; 32.2 µM with A498 renal; 52 µM in the experiment with EKVX NSCLC; 32.8 µM with HOP-62 NSCLC; 33 µM with HT29 colon; 31.5 µM in the experiment with M14 melanoma. In addition, the TGI was found to be 40.6 µM with NCI-H460 lung, 40.5 µM with SF-268 CNS and 31.7 µM in the experiment on SK-MEL-28 melanoma.
Take `COc1cccc(/C=C/C(=O)c2cc3c(N)c(C(=O)Nc4cccc5ccccc45)sc3nc2C)c1`: the GI50 in the experiment with 786-0 renal is 0.851 µM; in the experiment on A498 renal, 0.885 µM; with EKVX NSCLC, 1.87 µM; in the experiment with HOP-62 NSCLC it was 1.14 µM; with HT29 colon it was 0.65 µM; with M14 melanoma, 1.31 µM. In addition, the GI50 in the experiment with MOLT-4 leukemia is 1.46 µM; in the experiment with NCI-H460 lung, 1.22 µM; in the experiment on SF-268 CNS it was 1.89 µM. The TGI with 786-0 renal is 1.85 µM; in the experiment with A498 renal, 2.74 µM; in the experiment with EKVX NSCLC, over 50 µM; in the experiment on HOP-62 NSCLC it was 3.21 µM; in the experiment with HT29 colon it was 2.06 µM; in the experiment on M14 melanoma, 4.69 µM. The results for the TGI in the experiment with MOLT-4 leukemia, in the experiment with NCI-H460 lung and in the experiment with SF-268 CNS were over 50 µM, 3.45 µM and over 50 µM, respectively.
